# Measurements taken from US20250122171A1, “Substituted Amine Compounds, Compositions and Methods of Use” (Deep Apple Therapeutics, Inc., priority 2023, published 2025).
# pIC50: −log10 of the molar value.
# Target: T1, human MRGPRX2 (Homo sapiens, UniProt Q96LB1)
# T1 construct: expressed in transfected cells; host or cells: FlpIn TRex HEK293 (TRex-MRGPRX2-HEK), doxycycline-induced
# T1 sequence (Q96LB1 1-330): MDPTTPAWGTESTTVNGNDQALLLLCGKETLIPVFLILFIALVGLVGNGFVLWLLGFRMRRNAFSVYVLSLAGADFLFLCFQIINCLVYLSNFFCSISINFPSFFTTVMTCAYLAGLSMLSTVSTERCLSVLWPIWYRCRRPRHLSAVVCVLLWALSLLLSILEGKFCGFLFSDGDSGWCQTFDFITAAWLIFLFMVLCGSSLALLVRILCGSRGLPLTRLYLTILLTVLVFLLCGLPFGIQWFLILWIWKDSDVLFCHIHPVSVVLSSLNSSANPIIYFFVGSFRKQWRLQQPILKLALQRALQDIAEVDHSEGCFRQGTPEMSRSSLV
# Experiment: MRGPRX2 Activity Assay (IP-1 HTRF, antagonist mode)
# Type: cell-based
# Conditions: FlpIn TRex-MRGPRX2-HEK293 cells; versus 1 μM Cortistatin-14 agonist; 30 minutes preincubation
# Method: FlpIn TRex-MRGPRX2-HEK293 cells (herein TRex-MRPGRX2-HEK) stably transfected to express human MRGPRX2 were maintained at 37° C. with 5% CO2 and grown in DMEM supplemented with 10% FBS, 1% L-Glutamate, 1% penicillin/streptomycin, 100 ug/mL Hygromycin B, and 15 ug/mL Blasticidin.
# GOI (MRGPRX2) expression was induced with 100 ng/mL of Doxycycline 18-24 hours prior to experiment, in flask. On the day of experiment, cells were lifted with TripLE Express and seeded in 384-well white walled opaque bottomed, assay plates, at 8,000 cells per well in 5 uL freshly made assay buffer (HBSS, 20 mM HEPES, 0.1% BSA and 10 mM LiCl). Compounds solubilized in 100% DMSO at 30 mM were serially diluted (1:4) first in 100% DMSO, and an intermediate plate of assay buffer was used to establish a final top concentration of 30 uM (in assay plate). Final DMSO concentration was kept constant at 1% across assay plates. […], at 30 mM stock concentration was solubilized in HBSS+0.1% BSA, stored at −20° C. in 5 μL aliquots and discarded after one freeze-thaw cycle. […].
# Antagonist equilibrium was established with 30 minutes preincubation, followed by no wash, direct addition, and stimulation of agonist for 1 hour at 37° C./5% CO2. IP-1 standards and HTRF detection reagents were added according to the IP-one Gq kit protocol purchased from CisBio (part number 62IPAPEJ). The plate was read on an EnVision XCite plate reader. The HTRF ratio was then calculated from raw data (channel1/channel2×10,000) and analyzed using either GraphPad Prism or a custom Python script to calculate IC50 using Log[Antagonist] vs. response (4 parameter) nonlinear regression.
row,Structure (SMILES),pIC50
1,"C[C@@H](C(=O)Nc1cn2c(n1)CC[C@@H]2c1cc(F)cc(F)c1)N1CCOCC1 (single isomer, unassigned) [Compound 511]",< 4.52
2,"C[C@@H](C(=O)Nc1cn2c(n1)CC[C@H]2c1cc(F)cc(F)c1)N1CCOCC1 (single isomer, unassigned) [Compound 514]",< 4.52
3,"C[C@@H](C(=O)Nc1cn2c(n1)[C@@H](O)C[C@@H]2c1cc(F)cc(F)c1)N1CCC(F)(F)[C@@H](c2ccc(=O)[nH]c2)C1 (single isomer, unassigned) [Compound 516]",< 4.52
4,"C[C@@H](C(=O)Nc1cn2c(n1)[C@@H](O)C[C@H]2c1cc(F)cc(F)c1)N1CCC(F)(F)[C@@H](c2ccc(=O)[nH]c2)C1 (single isomer, unassigned) [Compound 517]",< 4.52
5,"C[C@@H](C(=O)Nc1cn2c(n1)CC[C@@H]2c1cc(F)cc(F)c1)N1CCC(F)(F)[C@@](C)(c2cc[n+]([O-])cc2)C1 (single isomer, unassigned) [Compound 519]",< 4.52
6,"C[C@@H](C(=O)Nc1cn2c(n1)CC[C@@H]2c1cc(F)cc(F)c1)N1CCC2(CC2)[C@H](c2cc[n+]([O-])cc2)C1 (single isomer, unassigned) [Compound 522]",6.64
7,"C[C@@H](C(=O)Nc1cn2c(n1)CC[C@@H]2c1cc(F)cc(F)c1)N1CCC(F)(F)[C@H](c2cc[n+]([O-])c(CO)c2)C1 (single isomer, unassigned) [Compound 526]",8.01
8,"C[C@@H](C(=O)Nc1cn2c(n1)CC[C@@H]2c1cc(F)cc(F)c1)N1CCC(F)(F)[C@@H](c2c[nH]c(=O)cn2)C1 (single isomer, unassigned) [Compound 527]",6.99
9,"C[C@@H](C(=O)Nc1cn2c(n1)CC[C@@H]2c1cc(F)cc(F)c1)N1CCC(F)(F)[C@@H](c2ccc(=O)n(C)c2)C1 (single isomer, unassigned) [Compound 532]",5.28
10,"C[C@@H](C(=O)Nc1cn2c(n1)CC[C@@H]2c1cc(F)cc(F)c1)N1CCC(F)(F)[C@H](c2ccc(=O)n(C)c2)C1 (single isomer, unassigned) [Compound 533]",7.74
11,"C[C@@H](C(=O)Nc1cc2n(n1)CC[C@H]2c1cc(F)cc(F)c1)N1CCC(F)(F)[C@@H](c2cc[n+]([O-])cc2)C1 (single isomer, unassigned) [Compound 550]",8.22
12,"O=C(Nc1cn(Cc2cc(F)cc(F)c2)cn1)[C@H]1C(F)(F)C12CCC2 [Compound 30, (S)—N-(1-(3,5-difluorobenzyl)-1H-imidazol-4-yl)-2,2-difluorospiro[2.3]hexane-1-carboxamide]",6.59
13,"C[C@@H](C(=O)Nc1cn(Cc2cc(Cl)ccc2F)cn1)N1CCC(F)(F)[C@@H](c2cc[n+]([O-])cc2)C1 [Compound 33, 4-((S)-1-((S)-1-((1-(5-chloro-2-fluorobenzyl)-1H-imidazol-4-yl)amino)-1-oxopropan-2-yl)-4,4-difluoropiperidin-3-yl)pyridine 1-oxide]",7.52
14,"C[C@@H](C(=O)Nc1cn(Cc2ccccc2F)cn1)N1CCC(F)(F)[C@@H](c2cc[n+]([O-])cc2)C1 [Compound 37, 4-((S)-4,4-difluoro-1-((S)-1-((1-(2-fluorobenzyl)-1H-imidazol-4-yl)amino)-1-oxopropan-2-yl)piperidin-3-yl)pyridine 1-oxide]",7.27
15,"C[C@@H](C(=O)Nc1cn(Cc2cccc(F)c2)cn1)N1CCC(F)(F)[C@@H](c2cc[n+]([O-])cc2)C1 [Compound 38, 4-((S)-4,4-difluoro-1-((S)-1-((1-(3-fluorobenzyl)-1H-imidazol-4-yl)amino)-1-oxopropan-2-yl)piperidin-3-yl)pyridine 1-oxide]",7.03
16,"C[C@@H](C(=O)Nc1cn(Cc2cc(F)ccc2F)cn1)N1CCC(F)(F)[C@@H](c2cc[n+]([O-])cc2)C1 [Compound 40, 4-((S)-1-((S)-1-((1-(2,5-difluorobenzyl)-1H-imidazol-4-yl)amino)-1-oxopropan-2-yl)-4,4-difluoropiperidin-3-yl)pyridine 1-oxide]",7.60
17,"C[C@@H](C(=O)Nc1cn(Cc2ccccc2C(F)(F)F)cn1)N1CCC(F)(F)[C@@H](c2cc[n+]([O-])cc2)C1 [Compound 41, 4-((S)-4,4-difluoro-1-((S)-1-oxo-1-((1-(2-(trifluoromethyl)benzyl)-1H-imidazol-4-yl)amino)propan-2-yl)piperidin-3-yl)pyridine 1-oxide]",6.57

# Next, values leading:
row,pIC50,Structure (SMILES)
1,5.39,"C[C@H](C(=O)Nc1cn2c(n1)CC[C@@H]2c1cc(F)cc(F)c1)N1CCOCC1 (single isomer, unassigned) [Compound 512]"
2,< 4.52,"C[C@H](C(=O)Nc1cn2c(n1)CC[C@H]2c1cc(F)cc(F)c1)N1CCOCC1 (single isomer, unassigned) [Compound 513]"
3,5.34,"C[C@@H](C(=O)Nc1cn2c(n1)[C@H](O)C[C@@H]2c1cc(F)cc(F)c1)N1CCC(F)(F)[C@@H](c2ccc(=O)[nH]c2)C1 (single isomer, unassigned) [Compound 515]"
4,< 4.52,"C[C@@H](C(=O)Nc1cn2c(n1)[C@H](O)C[C@H]2c1cc(F)cc(F)c1)N1CCC(F)(F)[C@@H](c2ccc(=O)[nH]c2)C1 (single isomer, unassigned) [Compound 518]"
5,6.89,"C[C@@H](C(=O)Nc1cn2c(n1)CC[C@@H]2c1cc(F)cc(F)c1)N1CCC(F)(F)[C@](C)(c2cc[n+]([O-])cc2)C1 (single isomer, unassigned) [Compound 520]"
6,5.32,"C[C@@H](C(=O)Nc1cn2c(n1)CC[C@@H]2c1cc(F)cc(F)c1)N1CCC2(CC2)[C@@H](c2cc[n+]([O-])cc2)C1 (single isomer, unassigned) [Compound 521]"
7,< 4.52,"C[C@@H](C(=O)Nc1cn2c(n1)CC[C@@H]2c1cc(F)cc(F)c1)N1CCC(F)(F)[C@@H](c2c[nH]c(=O)c(CO)c2)C1 (single isomer, unassigned) [Compound 523]"
8,7.30,"C[C@@H](C(=O)Nc1cn2c(n1)CC[C@@H]2c1cc(F)cc(F)c1)N1CCC(F)(F)[C@H](c2c[nH]c(=O)c(CO)c2)C1 (single isomer, unassigned) [Compound 524]"
9,5.26,"C[C@@H](C(=O)Nc1cn2c(n1)CC[C@@H]2c1cc(F)cc(F)c1)N1CCC(F)(F)[C@@H](c2cc[n+]([O-])c(CO)c2)C1 (single isomer, unassigned) [Compound 525]"
10,8.17,"C[C@@H](C(=O)Nc1cn2c(n1)CC[C@@H]2c1cc(F)cc(F)c1)N1CCC(F)(F)[C@H](c2c[nH]c(=O)cn2)C1 (single isomer, unassigned) [Compound 528]"
11,< 4.52,"C[C@@H](C(=O)Nc1cn2c(n1)CC[C@@H]2c1cc(F)cc(F)c1)N1CCC(F)(F)[C@@H](c2cc[n+]([O-])c(CN3CCC(F)(F)CC3)c2)C1 (single isomer, unassigned) [Compound 534]"
12,7.51,"C[C@@H](C(=O)Nc1cn2c(n1)CC[C@@H]2c1cc(F)cc(F)c1)N1CCC(F)(F)[C@H](c2cc[n+]([O-])c(CN3CCC(F)(F)CC3)c2)C1 (single isomer, unassigned) [Compound 535]"
13,6.36,"C[C@@H](C(=O)Nc1cc2n(n1)CC[C@@H]2c1cc(F)cc(F)c1)N1CCC(F)(F)[C@@H](c2cc[n+]([O-])cc2)C1 (single isomer, unassigned) [Compound 549]"
14,6.44,"C[C@@H](C(=O)Nc1cn(Cc2ccc(Cl)cc2F)cn1)N1CCC(F)(F)[C@@H](c2cc[n+]([O-])cc2)C1 [Compound 31, 4-((S)-1-((S)-1-((1-(4-chloro-2-fluorobenzyl)-1H-imidazol-4-yl)amino)-1-oxopropan-2-yl)-4,4-difluoropiperidin-3-yl)pyridine 1-oxide]"
15,6.98,"C[C@@H](C(=O)Nc1cn(Cc2cc(F)c(F)c(F)c2F)cn1)N1CCC(F)(F)[C@@H](c2cc[n+]([O-])cc2)C1 [Compound 32, 4-[(3S)-4,4-difluoro-1-[(1S)-1-({1-[(2,3,4,5-tetrafluorophenyl)methyl]imidazol-4-yl}carbamoyl)ethyl]piperidin-3-yl]pyridin-1-ium-1-olate]"
16,6.68,"C[C@@H](C(=O)Nc1cn(Cc2ccc(F)cc2)cn1)N1CCC(F)(F)[C@@H](c2cc[n+]([O-])cc2)C1 [Compound 36, 4-((S)-4,4-difluoro-1-((S)-1-((1-(4-fluorobenzyl)-1H-imidazol-4-yl)amino)-1-oxopropan-2-yl)piperidin-3-yl)pyridine 1-oxide]"
